Measured values as given in BindingDB's records for doi:10.7270/Q2J964TC (Burnham Center for Chemical Genomics, 2010).

Biological target: T1, Mannose-6-phosphate isomerase (Homo sapiens, UniProt P34949)
T1 sequence (P34949 whole entry): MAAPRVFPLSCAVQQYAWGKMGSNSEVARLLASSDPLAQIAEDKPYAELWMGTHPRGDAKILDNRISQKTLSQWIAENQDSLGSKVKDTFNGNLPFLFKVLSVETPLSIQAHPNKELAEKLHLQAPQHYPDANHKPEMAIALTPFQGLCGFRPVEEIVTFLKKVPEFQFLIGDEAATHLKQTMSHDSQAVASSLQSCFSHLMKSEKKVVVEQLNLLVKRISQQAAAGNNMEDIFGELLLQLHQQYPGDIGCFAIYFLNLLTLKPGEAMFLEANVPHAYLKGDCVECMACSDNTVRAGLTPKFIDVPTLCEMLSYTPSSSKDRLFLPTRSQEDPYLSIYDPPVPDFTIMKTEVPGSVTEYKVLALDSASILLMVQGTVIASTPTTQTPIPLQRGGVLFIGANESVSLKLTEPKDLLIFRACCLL
Experiment: PMI enzyme inhibitors, confirmation, biochemical, fluorescence intensity (AID 1535)

- IC50: > 100 µM
SMILES: Oc1c(-c2ccccc2)sc2ccccc12 [2-phenyl-1-benzothiophen-3-one]
